test system: rat mixed glia culture; test: Neural neogenesis promoting effect in rat mixed glia culture (differentiation assay, β III tubulin positive cell count); conditions: 120 h, 1 μM compound, 5 days differentiation, β III tubulin positive cells, % activity based on non-treatment control, read-out: Differentiation or neogenesis promoting activity (%)
Text: Neural Neogenesis Promoting Effect in Rat Mixture Glia Culture
A neonatal SD rat was purchased from Charles River Japan, Inc. A nylon cell strainer with 40 micron in diameter was purchased from Becton Dickinson. DMEM/F12 Medium, antibiotics, N2 additives were purchased from LIFE TECHNOLOGY. Anti-β III-tubulin antibody was purchased from Sigma. DAKO EnVision+/HRP kit was purchased from DAKO Japan. Other reagents were commercial products of analytical grade.
A rat mixed glia culture was made from a hippocampus of a neonatal SD rat of 2 days old. The neonate was anesthetized by ice-cooling, sacrificed by decapitation and the brain was taken out immediately. The meninx was removed carefully, and the […] was separated. The hippocampus was pulverized mechanically by passing through a nylon cell strainer with 40 micron in diameter. The cell dispersion was overlaid on serum, and the cells were fractionated by a non-continuous gradient centrifugation. The pellet was washed twice with a growth medium (DMEM/F12 supplemented with 10% FBS and antibiotics) and then dispersed. The mixed glia culture was inoculated onto a collagen-coated 96-well multiplate at the density of 1×10^5 cells per well, and incubated for 5 days.
After incubating for 5 days, the mixed glia culture was subjected to a differentiation assay. The growth medium was replaced with a serum-free medium (DMEM/F12 supplemented with N2 additives and antibiotics) and the test compound was added simultaneously. After allowing to undergo the differentiation for 5 days followed by fixation with 4% p-formaldehyde, a mouse anti-β III tubulin monoclonal antibody and DAKO EnVision+/HRP kit was used to effect an immunostaining.
The β III tubulin positive cells were counted, and the data in the presence (1 μM) of the Compound (I) and the absence (control) were compared.

Compound | activity at 1 µM
COc1cc2c(cc1OC)CN(c1c(C)c(C)c3c(c1C)C(c1ccc(C(C)C)cc1)C(C)(C)O3)C2 (stereo not drawn) [Example 11a, 5,6-dimethoxy-2-[3-(4-isopropylphenyl)-2,2,4,6,7-pentamethyl-2,3-dihydro-1-benzofuran-5-yl]isoindoline] | 478%
COc1cc2c(cc1OC)CN(c1c(C)c(C)c3c(c1C)[C@@H](c1ccc(C)cc1)C(C)(C)O3)C2 [Example 17a, (R)-5,6-dimethoxy-2-[2,2,4,6,7-pentamethyl-3-(4-methylphenyl)-2,3-dihydro-1-benzofuran-5-yl]isoindoline] | 344%
Cc1c(C)c2c(c(C)c1NCc1ccc(F)cc1)C(c1ccc(C(C)C)cc1)C(C)(C)O2 (stereo not drawn) [Example 19b, N-(4-fluorobenzyl)-3-(4-isopropylphenyl)-2,2,4,6,7-pentamethyl-2,3-dihydro-1-benzofuran-5-amine] | 468%

— US20040034049A1, “Promoters for the proliferation and differentiation of stem cells and/or neuron precursor cells” (priority 2003, published 2004)
